Source: article PMC10384408, “Anticancer Tungstenocenes with a Diverse Set of (O,O–), (O,S–) and (O,N–) Chelates—A Detailed Biological Study Using an Improved Evaluation via 3D Spheroid Models” (Pharmaceutics, 2023)

Tests used:
[1] = tested on: A549 (non-small cell lung carcinoma) cells; test: MTT cytotoxicity assay, A549 monolayer; assay type: cell-based, human; details: exposure time 96 h, mean ± SD
Experimental: (§1) CH1/PA-1 (ovarian teratocarcinoma), SW480 (colon carcinoma) and A549 (non-small cell lung cancer) cells were maintained as described in the reference. IMR-90 human fetal lung fibroblasts (from the European Collection of Authenticated Cell Cultures, Porton Down, Salisbury, UK) were cultured in Stable Cell^TM DMEM/F12 supplemented with 0.01 mg/mL human recombinant insulin (both purchased from Sigma-Aldrich) and 10% fetal bovine serum (FBS, BioWest, Nuaillé, France). Human colon carcinoma cell lines HCT116 and HT29 (both kindly provided by the Institute of Cancer Research, Department of Medicine I, Medical University of Vienna, Austria) were cultured in McCoy’s 5a medium supplemented with 4 mM L-glutamine (both purchased from Sigma-Aldrich) and 10% FBS. MCF-7 human breast adenocarcinoma cells (kindly provided by M. Ogris, Department of Pharmaceutical Sciences, University of Vienna, Austria) were maintained in DMEM (high glucose) supplemented with 4 mM L-glutamine, 0.1 mg/mL human insulin (all purchased from Sigma-Aldrich) and 10% FBS. All cell lines were grown as monolayers in 75 cm^2 culture flasks (CytoOne, Starlab, Hamburg, Germany) at 37 °C in a humidified atmosphere containing 5% CO2.
Exponentially growing cells were plated into 96-well microculture plates (CytoOne, tissue culture treated, Starlab, Hamburg, Germany) in densities of 1 × 10^3 CH1/PA-1, 2 × 10^3 SW480, 3 × 10^3 A549 and 7 × 10^3 IMR-90 cells per well (each in 100 µL). After a 24 h preincubation, drugs were added in serial dilution to give a final volume of 200 µL/well and exposed for 96 h. At the end of the exposure, the drug solutions were replaced by 100 µL RPMI 1640/MTT mixture (7:1 ratio). MTT (3-(4,5-dimethylthiazol-2-yl)-2,5-diphenyl-2H-tetrazolium bromide), (Acros Organics, Geel, Belgium) solution was prepared in phosphate-buffered saline (5 mg/mL) and mixed with RPMI1640 medium supplemented with 4 mM L-glutamine (both from Sigma-Aldrich) and 10% FBS. After 4 h incubation, the formazan crystals were solubilized in 150 µL of DMSO per well. Absorbance was measured at 550 nm (and at 690 nm as a reference) with a microplate reader (ELx808, BioTek, Winoosky, VT, USA) and Gen5^TM 3.08 software (BioTek). The 50% inhibitory concentrations (IC50) relative to untreated controls were interpolated from concentration-effect curves. At least three biologically and technically independent experiments were performed.

[2] = Cyclic voltammetry in MeCN (W(IV) to W(V)); assay type: physicochemical; details: vs. NHE, scan rate 200 mV/s
Experimental: NMR spectra were recorded with a Bruker FT-NMR Avance III^TM 500 MHz spectrometer at 500.10 (^1H), and 125.75 MHz (^13C) using DMSO–d6. 2D-NMR measurements were recorded utilizing standard pulse programs COSY, HSQC and HMBC. The Microanalytical Laboratory of the University of Vienna performed the elemental analyses with a Eurovector EA 3000(2009) equipped with a high temperature pyrolysis furnace (HT, Hekatech, Germany, 2009). Elemental analyses’ samples were weighed (weights from 1–3 mg were used) on a Sartorius SEC 2 ultra-micro balance with ±0.1 µg resolution. Two NIST-certified reference materials were used for calibration: sulfanilamide (C6H8N2O2S) and BBOT (2,5-bis-(5-tert-butyl-2-benzoxazol-2-yl)-thiophenone, C26H26N2O2S). The limit of quantification (LOQ) was 0.05 w% for C, H, N and 0.02 w% for S. For samples without N and/or S, the content of these elements was determined and verified to be below the LOQ. X-ray diffraction analyses were carried out on a Bruker X8 APEX II CCD diffractometer at 100 K. ESI-MS were recorded on a Bruker AmaZon SL ion trap mass spectrometer (Bruker Daltonics GmbH). Data were obtained and processed with Compass 1.3 and Data Analysis 4.0 (Bruker Daltonics GmbH). Infrared spectra were attained on a Bruker Vertex 70 FT-IR-spectrometer with an ATR-unit (attenuated total reflection unit) in the range of 4000–600 cm^−1. Intensities of the reported bands are described with w for weak, m for medium and s for strong; broad signals are additionally specified with the letter b in front of these abbreviations. Cyclic voltammograms (CVs) were measured in a three-electrode cell using 2 mm diameter glassy carbon disk working electrode, a platinum auxiliary electrode and an Ag|Ag^+ reference electrode containing 0.1 M AgNO3. Measurements were carried out at room temperature using an EG&G PARC potentiostat/galvanostat 273A. The solutions were deoxygenized by purging a stream of argon for 3 min through the solution and the experiment was performed under an argon atmosphere. The potentials were measured in a freshly prepared solution of (n Bu4N)[BF4] (0.1 M) in acetonitrile using ferrocene (Fe(η^5-C5H5)2) (E1/2 = +0.72 V vs. NHE) as an internal standard and are quoted relative to the normal hydrogen electrode (NHE).
The electrochemical behavior of all complexes and the precursor Cp2WCl2 was studied by cyclic voltammetry with a scan rate of 200 mV/s, from −0.5 to +1.2 or +1.5 V. Measurements were performed in triplicate. Due to low water solubility of compounds 1–10 acetonitrile (MeCN) was utilized in order to reach the 2 mM concentration.

[3] = tested on: HT29 cells; test: Resazurin assay, HT29 2D monolayer; assay type: cell-based, human; details: 96 h
Experimental: as §1
For the resazurin assay in monolayer cultures, cells were seeded into 96-well microculture plates (CytoOne, tissue culture treated, Starlab, Hamburg, Germany) in densities of 2 × 10^3 HCT116, 2 × 10^3 HT29 and 4 × 10^3 MCF-7 cells per well (each in 100 µL). For tests in 3D cultures, spheroids were grown as described above. After 24 h (for monolayers) or 4 days (for spheroids) the test compounds in the appropriate medium were added in serial dilution to the plates to obtain a total volume of 200 µL/well. Wells without cells, containing medium and resazurin (Alfa Aesar, Thermo Fisher, Kandel, Germany) solution were used as blanks. After 96 h exposure 20 µL of the resazurin solution (440 µM) were added to each well, followed by a 4 h (2D) or 12 h (3D) incubation period. Resorufin fluorescence was quantified at 530 nm (and a reference wavelength of 620 nm) by using a microplate reader (Synergy HT, BioTek) with Gen5^TM 3.10 software (BioTek).

[4] = tested on: HT29 cells; test: Annexin V-FITC/PI apoptosis assay, HT29; details: HT29, 24 h, 200 µM

## Cc1occc(=S)c1[O-].F[P-](F)(F)(F)(F)F.[W+4].c1cc[cH-]c1.c1cc[cH-]c1 [Compound 2, Bis(η^5-cyclopentadienyl)[2-methyl-3-(oxo-κO)-4-(1H)-pyran-4-thionato-κS]tungsten(IV) hexafluorophosphate]
[1]
  IC50: 36 ± 6 µM
[2]
  E1/2: 1.047 V
[3]
  IC50: 53 ± 9 µM
[4]
  early apoptotic cells [%] AV+ / PI-: 3.9 ± 1.8%
  late apoptotic cells [%] AV+ / PI+: 6.1 ± 1.0%
  necrotic cells [%] AV- / PI+: 3.3 ± 2.4%
  viable cells [%] AV- / PI-: 86.8 ± 2.4%
[4]; sum of early and late
  ∑apoptotic cells [%]: 10%
